Patent US20090215025A1, “SMALL PEPTIDIC AND PEPTIDO-MIMETIC AFFINITY LIGANDS FOR FACTOR VIII AND FACTOR VIII-LIKE PROTEINS” (TECHNISCHE UNIVERSITAT MUNCHEN, priority 2005, published 2009)

What was measured:
[1] = molecular target: T1, plasma-derived (pd-) human Factor VIII (FVIII) (Homo sapiens, UniProt P00451); test: Binding of 125I-labeled pd-FVIII to peptides immobilized on Toyopearl AF-Epoxy-650M resin (micro-beads assay); settings: Table 1
T1 construct: from tissue; host or cells: human blood plasma (FVIII concentrate)
Method: Peptides P1 to P25 were immobilized on the Toyopearl AF-Epoxy-650M resin (Tosoh Biosep) as described by Jungbauer et al. For immobilization, 2.5 mg of each peptide was dissolved in 0.25 mL of the immobilization buffer (0.2 M sodium bicarbonate, pH 10.3), and 0.036 g of the dry resin powder (corresponding to 0.125 mL of swollen resin) was added, followed by incubation of the mixture with gentle rotation for 48 hours. Upon incubation for 48 hours the resin was washed once with immobilization buffer, once with 1 M NaCl and then 3 times with binding buffer, and binding of ^125I-labeled pd-FVIII to the peptide-coated and control resin was tested. The coupling density of each peptide in each of the reported experiments was as mentioned in Table 1. The control 0.25 mL portion of the resin was similarly treated in parallel experiment in the absence of peptide and was subsequently used as a control (designated as Background) in ^125I-pd-FVIII binding experiments. ^125I-pd-FVIII Bound/Background ratios were calculated as the amount of ^125I-pd-FVIII, bound to an immobilized peptide, divided by that bound to uncoated control resin, prepared as described above. This ratio represents a Signal/Noise ratio for the micro-beads assay, since ^125I-pd-FVIII bound to peptide represents the signal value and ^125I-pd-FVIII bound to peptide-uncoated resin represents the background (noise) value.
Plasma-derived (pd-) human Factor VIII (FVIII) was purified from concentrate by immunoaffinity chromatography on an anti-FVIII monoclonal antibody column followed by subsequent concentration of pd-FVIII by ion-exchange chromatography using Resource Q HR5/5 column. To separate FVIII from vWf, concentrate was incubated in 0.35 M NaCl, 0.04 M CaCl2, prior to affinity purification.
Trace amounts of vWf, which are potentially present in pd-FVIII preparation, were removed by passing pd-FVIII preparation through the column with anti-vWf high affinity monoclonal antibody, immobilized at the density 1.4 mg per mL of resin.
Ten μg of purified pd-FVIII were iodinated using lactoperoxidase beads and 0.5 mCi of Na^125I.
(§1) The resin with immobilized peptides was washed in the binding buffer (0.01 M Hepes, 0.1 M NaCl, 5 mM CaCl2, 0.01% Tween-80). Subsequently, the resin was diluted in the binding buffer as 1:7 slurry and aliquoted into Eppendorf tubes (40 μl per tube). ^125I-pd-FVIII (100000 cpm in 10 μl) was added to the tubes and the volume of the mixture was adjusted to 100 μl by adding 50 μl of the binding buffer containing 4% BSA to give a 2% final concentration of BSA. After 2 hours of incubation at room temperature on a rotator, the samples were washed 4 times in the binding. After each wash the tubes were centrifuged at 5000 rpm for 1 min in an Eppendorf microcentrifuge, supernatant was discarded, and the resin was re-suspended in the washing buffer, followed by centrifugation under the same conditions. After four washes the tubes with pellet without supernatant were counted for radioactivity. The resin without peptide was processed similarly to account for non-specific pd-FVIII binding to tubes and resin itself, and the radioactivity in this control tube was considered as a background value. Since ^125I-pd-FVIII contains the some fraction damaged during radiolabeling, binding was calculated as a percent of maximal achievable binding, determined in separate experiment with anti-FVIII Mab 8860-coated resin.
All the measurements were performed in duplicates. Each experiment was performed using two independently prepared immobilized peptide samples. The data presented in each figure are the mean values of the four determinations: duplicate determination in the two assays performed with beads on which peptides were independently immobilized on the different days. […]

[2] = molecular target: T2, ReFacto® (recombinant form of FVIII) (Homo sapiens, UniProt P00451, DEL763-1656); test: Binding of 125I-ReFacto to peptide-coated resin; settings: resin coated with peptide
T2 construct: purchased Wyeth-Ayerst Pharmacia and Upjohn; host or cells: CHO cells
T2 sequence (P00451 with tags, fused parts or gaps DEL763-1656 limits assumed): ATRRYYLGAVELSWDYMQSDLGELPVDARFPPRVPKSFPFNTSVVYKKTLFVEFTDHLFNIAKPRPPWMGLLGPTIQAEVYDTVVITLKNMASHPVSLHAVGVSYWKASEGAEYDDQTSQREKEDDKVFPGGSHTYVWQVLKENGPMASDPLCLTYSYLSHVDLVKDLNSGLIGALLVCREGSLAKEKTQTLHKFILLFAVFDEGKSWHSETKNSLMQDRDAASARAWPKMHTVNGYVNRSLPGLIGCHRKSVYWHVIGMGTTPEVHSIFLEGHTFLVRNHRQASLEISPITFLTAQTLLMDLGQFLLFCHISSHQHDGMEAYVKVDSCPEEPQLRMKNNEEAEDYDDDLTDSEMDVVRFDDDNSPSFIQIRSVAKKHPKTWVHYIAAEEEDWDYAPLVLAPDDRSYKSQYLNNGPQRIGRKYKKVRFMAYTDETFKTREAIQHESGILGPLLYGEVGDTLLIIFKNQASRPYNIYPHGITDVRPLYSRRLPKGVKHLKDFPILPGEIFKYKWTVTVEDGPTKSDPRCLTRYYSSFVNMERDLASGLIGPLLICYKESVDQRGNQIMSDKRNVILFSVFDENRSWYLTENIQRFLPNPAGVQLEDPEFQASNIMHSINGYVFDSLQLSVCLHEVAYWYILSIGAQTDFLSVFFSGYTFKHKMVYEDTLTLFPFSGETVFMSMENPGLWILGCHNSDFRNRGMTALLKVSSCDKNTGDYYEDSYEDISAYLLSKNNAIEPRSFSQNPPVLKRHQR
T2 sequence (P00451 1668-2351 limits assumed): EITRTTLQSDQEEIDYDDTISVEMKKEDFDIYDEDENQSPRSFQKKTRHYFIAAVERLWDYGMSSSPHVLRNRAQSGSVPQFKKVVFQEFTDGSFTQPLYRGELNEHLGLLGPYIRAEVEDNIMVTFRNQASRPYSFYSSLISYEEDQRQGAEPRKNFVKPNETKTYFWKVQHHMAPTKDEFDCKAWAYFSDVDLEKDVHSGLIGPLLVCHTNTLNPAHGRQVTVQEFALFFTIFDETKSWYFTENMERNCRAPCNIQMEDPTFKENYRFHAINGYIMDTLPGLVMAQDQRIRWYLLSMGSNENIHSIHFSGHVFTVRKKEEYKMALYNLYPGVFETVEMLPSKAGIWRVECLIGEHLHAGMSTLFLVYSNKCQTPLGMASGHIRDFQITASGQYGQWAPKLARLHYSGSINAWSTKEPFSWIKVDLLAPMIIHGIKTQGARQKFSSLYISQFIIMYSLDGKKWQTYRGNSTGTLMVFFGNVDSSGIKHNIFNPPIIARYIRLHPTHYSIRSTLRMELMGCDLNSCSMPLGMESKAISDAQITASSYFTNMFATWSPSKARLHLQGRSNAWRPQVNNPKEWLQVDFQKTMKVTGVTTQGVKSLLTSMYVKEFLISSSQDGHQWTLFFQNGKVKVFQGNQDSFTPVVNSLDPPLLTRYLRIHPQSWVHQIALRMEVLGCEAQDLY
Method: as §1, with “After each wash the tubes were centrifuged at 5000 rpm for 1 min in an Eppendorf microcentrifuge, supernatant was discarded, and the resin was re-suspended in the washing buffer, followed by centrifugation under the same conditions.” left out, “resin. […]” for “resin.”
(§2) Kogenate® and ReFacto® were iodinated in the same manner as described in Example 1 with respect to the pd-FVIII. Protein binding was measured using the same procedures as described in Example 1 above.

[3] = molecular target: T3, Kogenate® (recombinant form of FVIII) (Homo sapiens, UniProt P00451); test: Binding of 125I-Kogenate to peptide-coated resin; settings: resin coated with peptide
T3 construct: purchased Bayer; host or cells: baby hamster kidney (BHK) cells
Method: as §1, with “After each wash the tubes were centrifuged at 5000 rpm for 1 min in an Eppendorf microcentrifuge, supernatant was discarded, and the resin was re-suspended in the washing buffer, followed by centrifugation under the same conditions.” left out, “resin. […]” for “resin.”
as §2

T1 sequence (P00451 20-1667 limits assumed, one chain of several): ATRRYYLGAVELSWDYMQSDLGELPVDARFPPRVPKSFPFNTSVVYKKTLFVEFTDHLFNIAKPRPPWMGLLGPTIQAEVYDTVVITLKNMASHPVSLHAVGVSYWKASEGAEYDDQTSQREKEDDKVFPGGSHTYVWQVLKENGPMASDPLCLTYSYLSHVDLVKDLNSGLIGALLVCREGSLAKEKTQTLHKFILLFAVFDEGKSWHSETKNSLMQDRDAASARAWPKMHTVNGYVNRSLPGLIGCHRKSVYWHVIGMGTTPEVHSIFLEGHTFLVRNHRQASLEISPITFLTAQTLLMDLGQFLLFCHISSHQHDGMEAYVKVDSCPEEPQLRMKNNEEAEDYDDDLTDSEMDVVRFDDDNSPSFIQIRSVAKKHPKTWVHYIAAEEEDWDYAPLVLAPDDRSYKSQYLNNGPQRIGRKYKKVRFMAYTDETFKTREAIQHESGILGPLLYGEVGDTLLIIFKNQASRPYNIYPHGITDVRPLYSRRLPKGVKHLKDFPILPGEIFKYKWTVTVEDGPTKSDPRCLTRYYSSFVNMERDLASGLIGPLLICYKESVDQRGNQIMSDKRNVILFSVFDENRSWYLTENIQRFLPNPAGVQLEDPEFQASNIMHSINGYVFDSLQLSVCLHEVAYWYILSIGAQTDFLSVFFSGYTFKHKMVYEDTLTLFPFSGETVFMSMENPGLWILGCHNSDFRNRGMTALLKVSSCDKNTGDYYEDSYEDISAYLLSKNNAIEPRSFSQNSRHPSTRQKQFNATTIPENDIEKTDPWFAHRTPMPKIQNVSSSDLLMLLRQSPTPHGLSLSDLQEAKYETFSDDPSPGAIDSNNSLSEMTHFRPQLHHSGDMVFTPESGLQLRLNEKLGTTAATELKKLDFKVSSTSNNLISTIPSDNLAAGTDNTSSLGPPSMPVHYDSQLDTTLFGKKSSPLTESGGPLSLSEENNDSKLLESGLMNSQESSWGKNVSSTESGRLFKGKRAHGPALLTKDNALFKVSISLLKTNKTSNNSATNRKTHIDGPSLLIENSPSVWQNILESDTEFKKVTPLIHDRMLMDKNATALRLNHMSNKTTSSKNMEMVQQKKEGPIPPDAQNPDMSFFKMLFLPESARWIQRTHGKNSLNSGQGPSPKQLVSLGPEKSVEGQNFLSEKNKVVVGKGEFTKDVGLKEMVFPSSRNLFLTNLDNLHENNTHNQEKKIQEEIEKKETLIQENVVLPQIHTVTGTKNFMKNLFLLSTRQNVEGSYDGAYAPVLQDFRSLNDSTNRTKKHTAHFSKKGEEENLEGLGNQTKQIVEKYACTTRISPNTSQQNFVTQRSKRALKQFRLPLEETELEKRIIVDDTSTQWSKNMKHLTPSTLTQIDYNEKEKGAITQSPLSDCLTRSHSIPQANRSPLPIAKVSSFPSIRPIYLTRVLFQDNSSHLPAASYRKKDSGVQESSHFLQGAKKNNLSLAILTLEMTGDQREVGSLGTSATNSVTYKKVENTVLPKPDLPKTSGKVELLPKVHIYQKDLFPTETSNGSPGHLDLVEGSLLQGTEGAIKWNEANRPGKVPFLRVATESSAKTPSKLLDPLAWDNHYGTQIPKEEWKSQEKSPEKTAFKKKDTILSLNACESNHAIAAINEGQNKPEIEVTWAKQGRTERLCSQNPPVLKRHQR
T3 sequence (P00451 20-1667 limits assumed, one chain of several): as above

- Binding, rel. to control ([1]; 125I-pd-FVIII Bound/Background ratio versus uncoated control resin): 39.3 ± 0.3
- % Binding pdFVIII ([1]; immobilized on Toyopearl AF-Epoxy-650M, percent of maximal achievable binding (anti-FVIII Mab 8860-coated resin), mean of four determinations): 75.4 ± 0.6%
- 125I-ReFacto binding (% of total) [2]: 54.9 ± 6.3 % of total
- 125I-Kogenated FS binding (% of total) [3]: 49.6 ± 1.7 % of total
Substance: IAA-Glu-Tyr-Cys-OH [Compound P15]
